Measurements as given in BindingDB's records for doi:10.1074/jbc.M606784200 (Chul, 2007).

How the values were obtained:
[1] = molecular target: T1, Aldo-keto reductase family 1 member C3 (Homo sapiens, UniProt P42330); assay: Scintillation Proximity Assay (SPA); details: pH 6; 22 °C
T1 sequence (P42330 whole entry): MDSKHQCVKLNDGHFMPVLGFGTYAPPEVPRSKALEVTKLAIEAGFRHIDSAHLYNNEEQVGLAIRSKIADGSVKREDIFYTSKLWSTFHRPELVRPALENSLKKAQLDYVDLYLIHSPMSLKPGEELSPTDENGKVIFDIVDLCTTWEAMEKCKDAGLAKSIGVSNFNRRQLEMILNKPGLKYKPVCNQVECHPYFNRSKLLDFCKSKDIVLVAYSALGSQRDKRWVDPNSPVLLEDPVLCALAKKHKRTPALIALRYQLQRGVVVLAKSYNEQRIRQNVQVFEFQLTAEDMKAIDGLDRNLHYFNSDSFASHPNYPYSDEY
Description: SPA beads conjugated to anti-mouse IgG were incubated overnight in buffer with anti-testosterone monoclonal antibody. The enzymatic reaction was monitored by its conversion of 4-androstene-3, 17-dione to testosterone. The amount of [14C] testosterone produced in each well was determined by scintillation counting on a Perkin Elmer TopCount instrument and collected as DPMs. The data was then analyzed and percent inhibition and/or IC50 values, based on 10 point serially diluted curves in duplicate or triplicate, were calculated using Microsoft Excel and XLFit programs.

[2] = molecular target: T1, Aldo-keto reductase family 1 member C3; assay: Inhibition Study on the Interconversion of Testosterone to Androstenedione (4-dione); details: pH 7.5; 37 °C
Description: A radioactive assay was used for the enzyme kinetics in the presence of EM1404 at different concentrations for its Ki determination. Reactions were initiated by the addition of enzyme to the reaction mixture containing substrate and test compounds. After the reaction, the steroids were extracted, separated by TLC migration, and analyzed by phosphorimaging. The Km for testosterone oxidation in the absence of EM-1404, and four apparent Km values in the presence of 1, 3, 10, and 25 nM EM-1404, were determined. Ki value was further determined by a plot of Km vs. the inhibitor concentration.

| SMILES | IC50 [1] [nM] | Ki [2] [nM] |
| --- | --- | --- |
| COCCOc1cc2c(cc1C(=O)ON)C1CC[C@@]3(C)C(CC[C@@]34CCC(C)(C)C(=O)O4)C1CC2 (stereo partly drawn) [(2R,15'S)-5'-(2-methoxyethoxy)-5,5,15'-trimethyl-6-oxospiro[oxane-2,14'-tetracyclo[8.7.0.0^{2,7}.0^{11,15}]heptadecane]-2',4',6'-triene-4'-carboxylate] | 9.5 |  |
| CC1(C)CC[C@@]2(CCC3C4CCc5cc(C(N)=O)ccc5C4CC[C@@]32C)OC1=O (stereo partly drawn) [(2R,15'S)-5,5,15'-trimethyl-6-oxospiro[oxane-2,14'-tetracyclo[8.7.0.0^{2,7}.0^{11,15}]heptadecane]-2',4',6'-triene-5'-carboxamide] | 3.2 | 6.9 |
